# Reference: patent publication US10342430B2, “Device and method for in vivo noninvasive magnetic manipulation of circulating objects in bioflows” (BioVentures, LLC, priority 2007, dated 2019)
# How the values were obtained:
# [1] = tested on: B16F10 cultured mouse melanoma cells; experiment: Trypan blue exclusion assay after ICG labeling of melanoma cells; assay type: cell-based; conditions: staining 30 min at 37° C., 5% CO2; data not shown
# Source text: B16F10 cultured mouse melanoma cells (ATCC, Rockville, Md.) were used in this experiment. The cells were maintained using standard procedures (Ara et al. 1990, Weight et al. 2006, Zharov et al. 2006), including serial passage in phenol-free RPMI 1640 medium (Invitrogen, Carlsbad, Calif.) supplemented with 10% fetal bovine serum (FBS, Invitrogen). For comparison to the detection of unlabelled melanoma cells, the endogenous cell absorption was increased by staining with ICG (Akorn Inc., USA), a strongly absorbent dye in the NIR range, for 30 min at 37° C. and in the presence of 5% CO2.
# [2] = In vivo PAFC monitoring of Lymphazurin in blood circulation (ear microvessel) after tail vein injection; parameters: species or system mouse; conditions: 200 μl of 1% solution into tail vein; 50-μm ear microvessel; 650 nm
# Source text: In this experiment, a prototype PAFC system was used to detect Lymphazurin circulating in the blood vessels of a mouse ear.
# The prototype PAFC system was built on the platform of an Olympus BX51 microscope (Olympus America, Inc.) and a tunable optical parametric oscillator (OPO) pumped by a Nd:YAG laser (Lotis Ltd., Minsk, Belarus). […] Laser energy was directed to the blood vessels using a conventional lens, or an optical fiber. PA waves emitted by the cells were detected by ultrasound transducers (unfocused Panametrics model XMS-310, 10 MHz; focused cylindrical Panametrics model V312-SM, 10 MHz, focused lengths of 6 mm, 12 mm, and 55 mm; and customized resonance transducers), and the ultrasound transducer outputs were conditioned by an amplifier (Panametrics model 5662, bandwidth 50 kHz-5 MHz; Panametrics model 5678, bandwidth 50 kHz-40 MHz; customized amplifiers with adjustable high and low frequency boundaries in the range to 50-200 KHz and 1-20 MHz, respectively; resonance bandwidth of 0.3-1.0 MHz). The amplifier output signals were recorded with a Boxcar data acquisition system (Stanford Research Systems, Inc.) and a Tektronix TDS 3032B oscilloscope, and were analyzed using standard and customized software. […] The signals from the oscilloscope screen were recorded with a digital camera (Sony, Inc.) and video camera (JVC, Inc.). […]
SMILES,toxicity after labeling [1],clearance of Lymphazurin from the blood [2] [min]
"CC1(C)C(/C=C/C=C/C=C/C=C2\N(CCCCS(=O)(=O)O)c3ccc4ccccc4c3C2(C)C)=[N+](CCCCS(=O)(=O)[O-])c2ccc3ccccc3c21 [ICG, Indocyanine Green]",No toxicity was observed,–
"CCN(CC)c1ccc(C(=C2C=CC(=[N+](CC)CC)C=C2)c2cc(S(=O)(=O)[O-])ccc2S(=O)(=O)[O-])cc1.[Na+] [Lymphazurin, Isosulfan Blue]",–,50
